In one series the test system is P-gp. Description: Caco-2 uptake study (apparent permeability). Type of series: in vitro ADME. As to conditions: human; Caco-2, 25 μg/ml tacrolimus, Hanks buffer pH 7.4, 60 min, without verapamil. As for the experimental part: Caco-2 monolayers (passage 73) were grown in Dulbecco's modified Eagle's medium supplemented with 10% fetal bovine serum, 1% L-glutamine, 1% nonessential amino acids, and 5% antibiotic-antimycotic solution at 37° C. in humidified air, 5% CO2 atmosphere. The culture medium was first replaced after 72 h and every 48 h thereafter. The uptake studies were conducted with monolayers between 8 to 10 days in culture. All diffusion experiments were performed over 1 h at 37° C. Prior to the experiments, the culture medium was replaced with transport medium and cell monolayers were subsequently equilibrated for 30 min at 37° C. before the uptake study. Transport medium was Hanks buffer composed of 136.89 mM NaCl, 5.36 mM KCl, 0.34 mM Na2HPO4, 0.44 mM KH2PO4, 0.41 mM MgSO4 7H2O, 19.45 mM glucose, 1.26 mM CaCl2, 0.49 mM MgCl2.6H2O, 4.17 mM NaHCO3, 10 mM HEPES, and the pH was adjusted to 7.4. […] The lysate was collected in clean tube and tacrolimus was determined by HPLC as described above. […]
The apparent permeability (Papp, cm/s) was calculated according to the following equation described by Schrickx and Fink-Gremmels (J. Schrickx and J. Fink-Gremmels. P-glycoprotein-mediated transport of oxytetracycline in the Caco-2 cell model. J. Vet Pharmacol. Therap. 30: 25-31 (2007).

For series [1] the following is noted: cited from earlier work.
Series [2] in a line: In-vitro stability of tacrolimus in rat intestinal juice (pH 6.5). Type of series: in vitro ADME. As for the experimental part: The following solutions were added sequentially to a test tube: 300 μl of freshly thawed intestinal juice, 60 μl of 0.6 M phosphate buffer, pH 6.5 (the pH of the mixture of intestinal juice) and 25 μg/ml of tacrolimus in various formulations (up to 1.5 ml). The mixtures were stirred and incubated at 37° C. over time. At given time intervals of 5, 10, 20, 30, 45, 60, 90 and 120 min, the samples were withdrawn from the incubation, mixed with 150 μl of 0.5 M hydrochloric acid and 2 ml of ethyl acetate. The resulting mixtures were stirred vigorously and centrifuged at 4000 rpm (equivalent to 3000 g) over 10 min. The extraction of tacrolimus by ethyl acetate was repeated three times to ensure total removal of the drug from the mixtures. The different ethyl acetate layers (upper layers) were transferred to clean tubes and evaporated under nitrogen to dryness. The combined residues were dissolved in 1 ml of acetonitrile, and 50 μl were injected in the HPLC under the following conditions: Mobile phase Acetonitrile 100%, Flow rate 0.5 ml/min, Wavelength—213 nm, Column—LiChrospher® 100 RP-18 (5 μm), 4/120 mm.

The conditions of series [3]: immunosuppression; cited from earlier work.

In general, Papp refers to a coefficient for how fast a substance crosses the barrier. For `C=CC[C@@H]1/C=C(\C)C[C@H](C)C[C@H](OC)[C@H]2O[C@@](O)(C(=O)C(=O)N3CCCC[C@H]3C(=O)O[C@H](/C(C)=C/[C@@H]3CC[C@@H](O)[C@H](OC)C3)[C@H](C)[C@@H](O)CC1=O)[C@H](C)C[C@@H]2OC` [tacrolimus], the Papp at 60 min, 25 μg/ml in the series on P-gp was 2.05 ± 0.26 ×10⁻⁶ cm/s. The oral bioavailability in series [1] (in vivo, po) is 10-25%. Besides, in series [1] (in vivo), the “dose excreted unchanged in the urine” value is listed as “Less than 1%”, the “drug bound by erythrocytes” value is given as 75-80% and the “whole blood concentrations relative to plasma concentrations” value is given as 10- to 30 times. Also, the elimination half-life entry in series [1] (liver transplant patients) was “about 12 hours”. Also, the “tacrolimus stability incubated only with PBS (Control (−))” value in series [2] (PBS pH 6.5, no intestinal juice, 120 min incubation) is “remained intact”. Further, the “initial tacrolimus concentration decomposed / reduced” value in series [2] (intestinal juice with PBS pH 6.5, 37° C., 25 μg/ml tacrolimus, up to 120 min) was “at least 50%”. Also, in series [3], the “potency relative to cyclosporine” value was 10-100 times.

(Values after patent US9023386B2, “Microspheres comprising nanocapsules containing a lipophilic drug” (Yissum Research Development Company of the Hebrew …, priority 2006, dated 2015).)
